Measurements as given in ChEMBL document CHEMBL1201862, “PubChem BioAssay data set” (2004).
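48-hour exposure; five concentrations; linearly interpolated endpoints. GI50: concentration for 50% inhibition of growth.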 The source made the active and inactive calls. No stated cut-off is given here; in the data, active = GI50 up to about 1.1 µM and inactive = higher.

What was measured:
Test in all cases: DTP human tumour cell line panel, 48 h
CCRF-CEM = system: CCRF-CEM
COLO 205 = system: COLO 205
HCT-15 = system: HCT-15
HL-60 = system: HL-60
HOP-62 = system: HOP-62
HOP-92 = system: HOP-92
IGROV-1 = system: IGROV-1
LOX IMVI = system: LOX IMVI
M14 = system: M14
NCI-H522 = system: NCI-H522
SF-539 = system: SF-539
SK-MEL-5 = system: SK-MEL-5
SN12C = system: SN12C
SNB-75 = system: SNB-75
UACC-257 = system: UACC-257
UO-31 = system: UO-31
HT-29 = system: HT-29
786-0 = system: 786-0
OVCAR-4 = system: OVCAR-4
UACC-62 = system: UACC-62

With O=c1cnn(C/C=C\CO)c(=O)[nH]1 the GI50 (CCRF-CEM) was > 100 µM (inactive), the GI50 (COLO 205) was > 100 µM (inactive) and the GI50 (HCT-15) was greater than 100 µM. The GI50 (HL-60) was > 100 µM (inactive), the GI50 (HOP-62) was > 100 µM (inactive) and the GI50 (HOP-92) was > 100 µM (inactive). The GI50 (IGROV-1) was > 100 µM (inactive), the GI50 (LOX IMVI) was > 100 µM (inactive) and the GI50 (M14) was > 100 µM (inactive). For the same molecule, the GI50 (NCI-H522) was > 100 µM (inactive), the GI50 (SF-539) was > 100 µM (inactive) and the GI50 (SK-MEL-5) was > 100 µM (inactive). The GI50 (SN12C) was > 100 µM (inactive), the GI50 (SNB-75) was > 100 µM (inactive) and the GI50 (UACC-257) was > 100 µM (inactive). The GI50 (UO-31) was > 100 µM (inactive).
In the case of C[C@]12CC[C@H](OC(=O)Cc3ccc(N(CCCl)CCCl)cc3)CC1=CC[C@@H]1[C@@H]2CC[C@]2(C)C(=O)CC[C@@H]12, the GI50 (COLO 205) is reported as > 100 µM (inactive), the GI50 (HCT-15) is reported as greater than 100 µM and the GI50 (HL-60) is reported as > 100 µM (inactive). For the same molecule, the GI50 (HOP-62) was > 100 µM (inactive), the GI50 (HOP-92) was > 100 µM (inactive) and the GI50 (HT-29) was > 100 µM (inactive). The GI50 (IGROV-1) was > 100 µM (inactive), the GI50 (LOX IMVI) was > 100 µM (inactive) and the GI50 (M14) was > 100 µM (inactive). For the same molecule, the GI50 (NCI-H522) was > 100 µM (inactive), the GI50 (SF-539) was > 100 µM (inactive) and the GI50 (SK-MEL-5) was > 100 µM (inactive). For the same molecule, the GI50 (SN12C) was > 100 µM (inactive), the GI50 (SNB-75) was > 100 µM (inactive) and the GI50 (UACC-257) was > 100 µM (inactive). For the same molecule, the GI50 (UO-31) was > 100 µM (inactive).
COc1ccc(NC2Oc3cc4c(cc3C(c3cc(OC)c(O)c(OC)c3)C2C)OCO4)cc1 (stereo not drawn) was tested, and the GI50 (786-0) was 3.72 µM (inactive), the GI50 (COLO 205) was 8.87 µM (inactive) and the GI50 (HCT-15) was 1.79 µM. For the same molecule, the GI50 (HL-60) was 1.79 µM (inactive), the GI50 (HOP-92) was 23.8 µM (inactive) and the GI50 (HT-29) was 3.82 µM (inactive). For the same molecule, the GI50 (IGROV-1) was 5.55 µM (inactive), the GI50 (M14) was 5.36 µM (inactive) and the GI50 (NCI-H522) was 3.33 µM (inactive). The GI50 (OVCAR-4) was 48.2 µM (inactive), the GI50 (SF-539) was 4.2 µM (inactive) and the GI50 (SK-MEL-5) was 1.96 µM (inactive). The GI50 (SN12C) was 2.76 µM (inactive), the GI50 (SNB-75) was 2.11 µM (inactive) and the GI50 (UACC-257) was 15.1 µM (inactive). The GI50 (UACC-62) was 2.74 µM (inactive) and the GI50 (UO-31) was 5.97 µM (inactive).
With C=C(Br)CN(C)CC(=C)Br the GI50 (786-0) was > 100 µM (inactive), the GI50 (CCRF-CEM) was > 100 µM (inactive) and the GI50 (COLO 205) was > 100 µM (inactive). For the same molecule, the GI50 (HCT-15) was greater than 100 µM, the GI50 (HL-60) was > 100 µM (inactive) and the GI50 (HOP-62) was > 100 µM (inactive). For the same molecule, the GI50 (HOP-92) was > 100 µM (inactive), the GI50 (HT-29) was > 100 µM (inactive) and the GI50 (IGROV-1) was > 100 µM (inactive). The GI50 (LOX IMVI) was > 100 µM (inactive), the GI50 (M14) was > 100 µM (inactive) and the GI50 (NCI-H522) was > 100 µM (inactive). For the same molecule, the GI50 (OVCAR-4) was > 100 µM (inactive), the GI50 (SK-MEL-5) was > 100 µM (inactive) and the GI50 (SN12C) was > 100 µM (inactive). For the same molecule, the GI50 (SNB-75) was > 100 µM (inactive), the GI50 (UACC-257) was > 100 µM (inactive) and the GI50 (UACC-62) was > 100 µM (inactive). For the same molecule, the GI50 (UO-31) was > 100 µM (inactive).
With Oc1ccc(-c2nc3ccc4ccccc4c3c3c2CCCC3)c(O)c1 the GI50 (786-0) was 11.7 µM (inactive), the GI50 (COLO 205) was 11.1 µM (inactive) and the GI50 (HCT-15) was 26.5 µM. The GI50 (HL-60) was 2.55 µM (inactive), the GI50 (HOP-62) was 57.7 µM (inactive) and the GI50 (HOP-92) was 24.7 µM (inactive). The GI50 (HT-29) was 11.9 µM (inactive), the GI50 (IGROV-1) was 4.34 µM (inactive) and the GI50 (LOX IMVI) was 32.7 µM (inactive). For the same molecule, the GI50 (M14) was 15.2 µM (inactive), the GI50 (NCI-H522) was 12.1 µM (inactive) and the GI50 (OVCAR-4) was 66.8 µM (inactive). For the same molecule, the GI50 (SF-539) was 42.3 µM (inactive), the GI50 (SK-MEL-5) was 9.68 µM (inactive) and the GI50 (SN12C) was 17.7 µM (inactive). The GI50 (SNB-75) was 28.7 µM (inactive), the GI50 (UACC-257) was 10.5 µM (inactive) and the GI50 (UACC-62) was 19.5 µM (inactive). The GI50 (UO-31) was 29.9 µM (inactive).
With CC/C=C/C[C@H](O[Si](C)(C)C(C)(C)C)[C@H]1C[C@H]2O[C@H]([C@@H](O)C#C[Si](C)(C)C)C[C@H]2O1 the GI50 (786-0) was 14.7 µM (inactive), the GI50 (CCRF-CEM) was 21.5 µM (inactive) and the GI50 (COLO 205) was 13.5 µM (inactive). The GI50 (HCT-15) was 13.7 µM, the GI50 (HL-60) was 3.84 µM (inactive) and the GI50 (HOP-62) was 16.1 µM (inactive). For the same molecule, the GI50 (HOP-92) was 10.4 µM (inactive), the GI50 (HT-29) was 11.9 µM (inactive) and the GI50 (IGROV-1) was 14.3 µM (inactive). For the same molecule, the GI50 (LOX IMVI) was 10.4 µM (inactive), the GI50 (M14) was 12.1 µM (inactive) and the GI50 (NCI-H522) was 3.64 µM (inactive). For the same molecule, the GI50 (OVCAR-4) was 5.85 µM (inactive), the GI50 (SK-MEL-5) was 6.78 µM (inactive) and the GI50 (SN12C) was 5.36 µM (inactive). For the same molecule, the GI50 (SNB-75) was 16.3 µM (inactive), the GI50 (UACC-257) was 9.75 µM (inactive) and the GI50 (UACC-62) was 17.7 µM (inactive). For the same molecule, the GI50 (UO-31) was 14.2 µM (inactive).
With CCOC(=O)N/N=C(/N)Cc1ccccc1 the GI50 (786-0) was > 100 µM (inactive), the GI50 (CCRF-CEM) was > 100 µM (inactive) and the GI50 (COLO 205) was > 100 µM (inactive). For the same molecule, the GI50 (HCT-15) was greater than 100 µM, the GI50 (HL-60) was > 100 µM (inactive) and the GI50 (HOP-62) was > 100 µM (inactive). The GI50 (HOP-92) was > 100 µM (inactive), the GI50 (IGROV-1) was > 100 µM (inactive) and the GI50 (LOX IMVI) was > 100 µM (inactive). For the same molecule, the GI50 (M14) was > 100 µM (inactive), the GI50 (NCI-H522) was > 100 µM (inactive) and the GI50 (SF-539) was > 100 µM (inactive). For the same molecule, the GI50 (SK-MEL-5) was > 100 µM (inactive), the GI50 (SN12C) was > 100 µM (inactive) and the GI50 (SNB-75) was > 100 µM (inactive). The GI50 (UACC-257) was > 100 µM (inactive), the GI50 (UACC-62) was > 100 µM (inactive) and the GI50 (UO-31) was > 100 µM (inactive).
With CCCCCC[N+](C)(C)Cc1ccc(C[N+](C)(C)CCCCCC)cc1 the GI50 (786-0) was 3.52 µM (inactive), the GI50 (CCRF-CEM) was 2.73 µM (inactive) and the GI50 (COLO 205) was 1.82 µM (inactive). For the same molecule, the GI50 (HCT-15) was 4 µM, the GI50 (HL-60) was 4.33 µM (inactive) and the GI50 (HOP-62) was 3.05 µM (inactive). The GI50 (HOP-92) was 2.97 µM (inactive), the GI50 (HT-29) was 3.8 µM (inactive) and the GI50 (IGROV-1) was 2.54 µM (inactive). The GI50 (LOX IMVI) was 2.09 µM (inactive), the GI50 (M14) was 3.48 µM (inactive) and the GI50 (NCI-H522) was 1.74 µM (inactive). For the same molecule, the GI50 (OVCAR-4) was 4.58 µM (inactive), the GI50 (SK-MEL-5) was 6.64 µM (inactive) and the GI50 (SN12C) was 3.49 µM (inactive). For the same molecule, the GI50 (SNB-75) was 2.8 µM (inactive), the GI50 (UACC-257) was 10.8 µM (inactive) and the GI50 (UACC-62) was 8.32 µM (inactive). For the same molecule, the GI50 (UO-31) was 8.43 µM (inactive).
